The source of these data is ChEMBL document CHEMBL6103570, “An endoplasmic reticulum and lipid droplets dual-localized strategy to develop small molecular photosensitizers that induce ferroptosis during photodynamic therapy” (Eur J Med Chem, 2025).

Series [1] deals with 4T1. The series is described as follows: Induction of ferroptosis in mouse 4T1 cells assessed as cell viability at 20 nM preincubated for 24 hrs followed by white light irradiation at 20 mW/cm2 and measured after 24 hrs in presence of Nec-1 by MTT assay. Format: functional, cell-based. As to conditions: time 48.0 hrs.
Series [2] concerns 4T1. The series is described as follows: Induction of ferroptosis in mouse 4T1 cells assessed as increase in MDA level at 10 nM preincubated in dark condition for 24 hrs followed by 20mW/cm2 white light irradiation for 10 mins and measured after 6 hrs by colorimetric assay. Format: functional, cell-based. The conditions noted are these: time 1810.0 min.
A short description of series [3]: Drug localization in Lysosome of mouse 4T1 cells assessed as increase in green fluorescence by measuring pearson correlation coefficient at 2 uM incubated for 12 hrs by confocal scanning microscopy analysis. The class given is ADME, subcellular. The conditions noted are these: 4t1, 12 h.
Series [4] is described as follows: Potency index, ratio of IC50 for Chlorin e6 to IC50 for test compound for phototoxicity in human MDA-MB-231 cells assessed as cell viability preincubated for 24 hrs followed by white light irradiation at 20 mW/cm2 for 10 mins and measured after 24 hrs by MTT assay. The class given is functional. The conditions noted are these: time 48 hrs.
Series [5] is described as follows: Toxicity in mouse assessed as effect on lung in at 3 mg/kg, IG measured after 15 days by H and E staining based analysis. Format: organism-based. As to conditions: in vivo, po, 360 h, time 15 day.
The test system of series [6] is 4T1. The series is described as follows: Antitumor activity against mouse 4T1 cells implanted in mouse model assessed as reduction in metastatic tumor at 3 mg/kg, IG measured every two days for 15 days by digital caliper method. The class given is functional, organism-based. The conditions noted are these: time 15.0 day.
A short description of series [7]: Darktoxicity in human MCF7 cells assessed as cell viability preincubated for 24 hrs followed by incubation under dark condition for 24 hrs by MTT assay. Format: toxicity, cell-based. As to conditions: time 48 hrs.
Series [8] is described as follows: Toxicity in mouse assessed as effect on kidney in at 3 mg/kg, IG measured after 15 days by H and E staining based analysis. The class given is organism-based. As to conditions: in vivo, po, 360 h, time 15 day.
Series [9] can be described thus: Photo selectivity index, ratio of CC50 for darktoxicity in human MDA-MB-231 cells assessed as cell viability preincubated for 24 hrs followed by incubation under dark condition for 24 hrs by MTT assay to IC50 for phototoxicity in human MDA-MB-231 cells assessed as cell viability preincubated for 24 hrs followed by white light irradiation at 20 mW/cm2 for 10 mins and measured after 24 hrs by MTT assay. Format: toxicity, cell-based. As to conditions: read-out: Ratio CC50/IC50.

Structures are written as SMILES. Activity calls are given as the source filed them. The calls are words filed in the database; no cut-off is given here.

As to `COC(=O)c1cc2c3ccccc3n(C)c2c(C2=C3C(C)=C(I)C(C)=[N+]3[B-](F)(F)n3c(C)c(I)c(C)c32)n1`, the outcome in the series on 4T1 [1] was inactive. In addition, the result in the series on 4T1 [2] and in the series with 4T1 [6] was Active. Moreover, the Activity in [3] was 0.53; in series [5], “Non-toxic”; in [8], “Non-toxic”. Also, the “Ratio IC50” value in series [4] was 38. For the same molecule, in series [7], the CC50 at 24 h is over 100 µM. The selectivity ratio in series [9] was over 9960.
